Data on seven compounds can be found in BindingDB's records for doi:10.1021/jm9608523 (Merck Sharp & Dohme Research Laboratories, 1997).

SMILES strings stand for the structures.

In the experiment the target is Gastrin/cholecystokinin type B receptor (Cavia porcellus). In words: Inhibition of ligand binding to Cholecystokinin type B receptor from guinea pig cortical membrane.
For orientation: IC50 means the point on the concentration scale where inhibition reaches its midpoint. A high value points to weaker potency. Regarding `CCCN1C(=O)[C@H](NC(=O)Nc2cccc(C)c2)N=C([C@H]2CCC(C)(C)CCN2C)c2ccccc21` [1-[(R)-2-Oxo-1-propyl-5-((R)-1,5,5-trimethyl-azepan-2-yl)-2,3-dihydro-1H-benzo[e][1,4]diazepin-3-yl]-3-m-tolyl-urea], the IC50 amounted to 0.026 µM.

Regarding `CCN(CC)C(=O)CN1C(=O)[C@H](NC(=O)Nc2cccc(C)c2)N=C(c2cccc[n+]2C)c2ccccc21` [2-[(R)-1-Diethylcarbamoylmethyl-2-oxo-3-(3-m-tolyl-ureido)-2,3-dihydro-1H-benzo[e][1,4]diazepin-5-yl]-1-methyl-pyridinium; iodide], the IC50 is 0.018 µM.

With `CCCN1C(=O)[C@H](NC(=O)Nc2cccc(C)c2)N=C([C@H]2CC(C)(C)CCN2)c2ccccc21` [1-[(R)-5-((R)-4,4-Dimethyl-piperidin-2-yl)-2-oxo-1-propyl-2,3-dihydro-1H-benzo[e][1,4]diazepin-3-yl]-3-m-tolyl-urea], the IC50 was 0.0015 µM.

`Cc1cccc(NC(=O)N[C@@H]2N=C([C@H]3CCC(C)(C)CCN3)c3ccccc3N(C)C2=O)c1` [1-[(R)-5-((R)-5,5-Dimethyl-azepan-2-yl)-1-methyl-2-oxo-2,3-dihydro-1H-benzo[e][1,4]diazepin-3-yl]-3-m-tolyl-urea] came in with a 50% inhibitory concentration (IC50) of 0.012 µM.

`CCCN1C(=O)[C@H](NC(=O)Nc2cccc(C)c2)N=C([C@H]2CCCCN2)c2ccccc21` [1-((R)-2-Oxo-5-(R)-piperidin-2-yl-1-propyl-2,3-dihydro-1H-benzo[e][1,4]diazepin-3-yl)-3-m-tolyl-urea]: the IC50 came out at 0.036 µM.

On to `CCCN1C(=O)[C@H](NC(=O)Nc2cccc(C)c2)N=C([C@@H]2CCCCN2)c2ccccc21` [1-((R)-2-Oxo-5-(S)-piperidin-2-yl-1-propyl-2,3-dihydro-1H-benzo[e][1,4]diazepin-3-yl)-3-m-tolyl-urea], for which the half-maximal inhibitory concentration (IC50) worked out at 0.041 µM.

On to `CCCN1C(=O)[C@H](NC(=O)Nc2cccc(C)c2)N=C([C@H]2CCCCN2C)c2ccccc21` [1-[(R)-5-((R)-1-Methyl-piperidin-2-yl)-2-oxo-1-propyl-2,3-dihydro-1H-benzo[e][1,4]diazepin-3-yl]-3-m-tolyl-urea], for which the 50% inhibitory concentration (IC50) was 0.054 µM.
